The record followed here is DBAASP.

Test systems include Pseudomonas aeruginosa; Staphylococcus aureus; Escherichia coli JM109; Fusarium oxysporum; Candida sp.; Serratia marcescens; Candida albicans; Escherichia coli; Pseudomonas putida; Saccharomyces cerevisiae; Streptococcus iniae; Vibrio parahaemolyticus; Lactococcus garvieae; Vibrio alginolyticus; Vibrio harveyi.
Holding throughout (test): ≥ marks a high value that may be exact or a test limit, other limits are often not marked, values filed in µg/mL are converted to µM
Experiment [1] relates to Trypanosoma brucei brucei GUT Tat3.1.
The subject of experiment [2] is Staphylococcus aureus KO-4.
The subject of experiment [3] is Trichophyton mentagrophytes IFO 5466.
Experiment [4] concerns Staphylococcus aureus ATCC 6538P.
The test system of experiment [5] is Escherichia coli 363 ATCC 11775.
For experiment [6], the system named is Vibrio metschnikovii NCTC 8483.
The test system of experiment [7] is Staphylococcus aureus ATCC 25293.
For experiment [8], the system named is Vibrio alginolyticus ATCC 17749.
The test system of experiment [9] is Salmonella enterica subsp. enterica serovar Newport.
In experiment [10] the test system is Bacillus megaterium ATCC 17749.
Experiment [11] has as its system Micrococcus luteus ATCC 4698.
The subject of experiment [12] is Staphylococcus epidermidis ATCC 12228.
Experiment [13] concerns Escherichia coli DH5alpha.
In experiment [14] the test system is Pseudomonas aeruginosa ATCC 9027.
For experiment [15], the system named is Shigella dysenteriae ATCC 9752.
In experiment [16] the test system is Salmonella enterica subsp. enterica serovar Typhimurium ATCC 14028.
In experiment [17] the test system is Proteus mirabilis ATCC 25933.
For experiment [18], the system named is Bacillus subtilis KCTC 1021.
Experiment [19] deals with Klebsiella pneumoniae ATCC 10031.
Experiment [20] relates to Klebsiella oxytoca BCRC 13985.
The subject of experiment [21] is Vibrio anguillarum serotype O1.
In experiment [22] the test system is Vibrio parahaemolyticus BCRC 10806.
Experiment [23] concerns Listeria monocytogenes BCRC 14845.
Experiment [24] concerns Pseudomonas aeruginosa BCRC 10944.
Experiment [25] concerns Staphylococcus xylosus BCRC 12930.
Experiment [26] has as its system Enterobacter cloacae BCRC 10401.
Experiment [27] deals with Streptococcus equinus BCRC 14729.
The subject of experiment [28] is Staphylococcus aureus BCRC 10780.
Experiment [29] has as its system Yersinia enterocolitica BCRC 13999.
The subject of experiment [30] is Klebsiella aerogenes BCRC 10370.
Experiment [31] concerns Staphylococcus aureus BCRC 10781.
The subject of experiment [32] is Escherichia coli BCRC 10675.
In experiment [33] the test system is Vibrio alginolyticus BCRC 12829.

Converted amounts (≈) assume the structure as drawn.

As usually defined, the MIC is the lowest concentration that inhibits growth of the organism. Low values mean greater potency, high ones weaker potency. `CC[C@H](C)[C@H](NC(=O)[C@H](C)NC(=O)[C@H](CC(C)C)NC(=O)[C@H](Cc1ccc(O)cc1)NC(=O)[C@H](CC(C)C)NC(=O)[C@H](C)N)C(=O)N[C@@H](CCCN=C(N)N)C(=O)N[C@@H](CCCN=C(N)N)C(=O)N[C@@H](CCCN=C(N)N)C(N)=O` [ALYLAIRRR]: the MIC is not below 125 µM in [1]; not below 530 µM in experiment [2]; 354 µM (≈ 400 µg/mL) with Pseudomonas aeruginosa; 21.2 µM (≈ 24 µg/mL) against Staphylococcus aureus; 2.65 µM (≈ 3 µg/mL) with Escherichia coli JM109; not below 53 µM in experiment [3]. The compound also registered a minimum inhibitory concentration (MIC) in [4] of 1.33 µM (≈ 1.5 µg/mL).
Turning to `CC(C)C[C@@H]1NC(=O)[C@H](CCCN=C(N)N)NC(=O)[C@H](Cc2cnc[nH]2)NC(=O)[C@H](Cc2c[nH]c3ccccc23)NC(=O)CNC(=O)CNC(=O)[C@@H](N)CSSC[C@@H](C(=O)O)NC(=O)[C@H](CCCN=C(N)N)NC1=O` [CGGWHRLRC], the MIC in experiment [5] is not below 75 µM; in experiment [6] it was not below 75 µM; with Fusarium oxysporum, 30 µM (≈ 32.6 µg/mL); in [7], not below 49 µM; with Candida sp. it was not below 59 µM; in [8], not below 75 µM. For the same compound, the MIC in [9] was not below 75 µM; in [10], not below 51 µM; in [11], 28 µM (≈ 30.4 µg/mL); in experiment [12], 43 µM (≈ 46.7 µg/mL).
`CC[C@H](C)[C@@H]1NC(=O)[C@H](CCCCN)NC(=O)[C@@H](NC(=O)[C@@H](NC(=O)[C@@H](NC(=O)[C@@H](NC(=O)[C@@H]2CCCN2C(=O)[C@H](CC(C)C)NC(=O)[C@H](Cc2ccccc2)NC(=O)[C@H](CC(N)=O)NC(=O)[C@H](C)NC(=O)[C@H](C)NC(=O)[C@H](CC(C)C)NC(=O)CNC(=O)[C@H](C)NC(=O)[C@H](CC(C)C)NC(=O)[C@H](CC(C)C)NC(=O)[C@@H]2CCCN2C(=O)[C@H](CC(C)C)NC(=O)[C@@H](N)Cc2ccccc2)[C@@H](C)O)[C@@H](C)CC)[C@@H](C)CC)CSSC[C@@H](C(=O)O)NC(=O)[C@H](CCCCN)NC(=O)[C@H](Cc2ccc(O)cc2)NC(=O)[C@H](CO)NC1=O` [FLPLLAGLAANFLPTIICKISYKC]: the MIC is 9.58 µM (≈ 25 µg/mL) in experiment [13]; not below 76.6 µM with Serratia marcescens; 57.5 µM (≈ 150 µg/mL) in experiment [14]; 19.2 µM (≈ 50 µg/mL) in experiment [15]; 19.2 µM (≈ 50 µg/mL) against Candida albicans; 19.2 µM (≈ 50 µg/mL) in [16]. Moreover, the MIC against Escherichia coli is 38.3 µM (≈ 99.9 µg/mL); against Pseudomonas putida it was not below 57.5 µM; in the experiment on Saccharomyces cerevisiae it was 19.2 µM (≈ 50 µg/mL); in experiment [11], 0.958 µM (≈ 2.5 µg/mL); in experiment [17], not below 76.6 µM; in experiment [18], 3.83 µM (≈ 9.99 µg/mL). Besides, the results for the minimal inhibitory concentration (MIC) in experiment [19] and in experiment [12] were 9.58 µM (≈ 25 µg/mL) and 3.83 µM (≈ 9.99 µg/mL), respectively.
`CC[C@H](C)[C@H](NC(=O)[C@H](Cc1ccc(O)cc1)NC(=O)[C@H](CCCCN)NC(=O)[C@H](Cc1ccc(O)cc1)NC(=O)[C@H](Cc1ccccc1)NC(=O)[C@H](CC(N)=O)NC(=O)[C@H](Cc1ccc(O)cc1)NC(=O)[C@@H](NC(=O)[C@H](Cc1ccc(O)cc1)NC(=O)[C@H](CCCCN)NC(=O)[C@H](C)NC(=O)[C@H](Cc1ccc(O)cc1)NC(=O)[C@H](CCCCN)NC(=O)[C@H](C)NC(=O)CN)[C@@H](C)CC)C(=O)N[C@@H](C)C(=O)N[C@@H](CCCCN)C(=O)N[C@@H](Cc1ccc(O)cc1)C(=O)N[C@H](C(=O)N[C@@H](Cc1c[nH]c2ccccc12)C(=O)O)[C@@H](C)CC` [GAKYAKYIYNFYKYIAKYIW]: the MIC is not below 49.9 µM in [20]; not below 49.9 µM in experiment [21]; not below 49.9 µM in the experiment with Streptococcus iniae; 24.9 µM (≈ 64 µg/mL) against Vibrio parahaemolyticus; 24.9 µM (≈ 64 µg/mL) in [22]; not below 49.9 µM in experiment [23]. The minimum inhibitory concentration (MIC) in experiment [24] was 24.9 µM (≈ 64 µg/mL); in [25], 24.9 µM (≈ 64 µg/mL); in experiment [26] it was 24.9 µM (≈ 64 µg/mL); in experiment [27] it was not below 49.9 µM; against Lactococcus garvieae, not below 99.7 µM; against Vibrio alginolyticus, 24.9 µM (≈ 64 µg/mL). Further, the MIC is not below 49.9 µM in [28]; not below 99.7 µM in [29]; 24.9 µM (≈ 64 µg/mL) in [30]; not below 49.9 µM in experiment [31]; 24.9 µM (≈ 64 µg/mL) in experiment [32]; 24.9 µM (≈ 64 µg/mL) in experiment [33]. The compound further registered an MIC against Vibrio harveyi of 24.9 µM (≈ 64 µg/mL).
